Results on two molecules are retold here after patent US5013837A, “3-Arylcarbonyl-1H-indole-containing compounds” (Sterling Drug Inc., priority 1990, dated 1991).

The conditions of assay [1]: topical application or systemic injection; cited from earlier work.
The subject of assay [2] is mouse vasa deferentia (MVD) preparation. The assay can be described thus: mouse vas deferens test (MVD). The format is cell-based. The following applies: inhibition of contractions in vitro, active at IC50 of 5.0 μM or less. From the text: Med. Assoc. 217, 1392 (1971)]. […] Opth. 7, 921-923 (1975); Green and Pederson, Effect of delta-9 Tetrahydrocannabinol on Aqueous Dynamics and Ciliary Body Permeability in the Rabbit Eye., Exptl. Eye Research 15, 499-507 (1973); Colasanti, Craig and Allara, Intraocular Pressure, Ocular Toxicity and Neurotoxicity after Administration of Cannabinol or Cannibigerol, Exptl. Eye Research 39, 252-259 (1984)]. Similarly, synthetic cannabinoids also reduce intraocular pressure [Green, Symunds, Oliver and Elijah, Intraocular Pressure Following Systemic Administration of Cannabinoids, Curr Eye Research 2, 247-253 (1982); Tiedeman, Shields, Weber, Crow, Coccetto, Harris and Howes, Ophthalmology, 88, 270-277 (1981); Colasanti et al., supra]. Cannabinoid receptor binding sites can be defined as those to which radio-labelled 4-(1,1-dimethylheptyl)-2,3'-dihydroxy-6'alpha-(3-hydroxypropyl)-1',2',3',4',5',6'-hexahydrobiphenyl (CP 55940) binds in a specific and saturable manner, and the binding sites are heterogeneously distributed in the brain [Devane, Dysarz, Johnson, Melvin and Howlett, Determination and Characterization of a Cannabinoid Receptor in Rat Brain, Molecular Pharm. 34, 605-613 (1988)]. Natural and synthetic cannabinoids and representative examples of the compounds of the present invention bind to CP 55940 binding sites. […]

Consider `CCCCCc1cc(O)c2c(c1)OC(C)(C)[C@@H]1CCC(C)=C[C@@H]21` [delta-9 tetrahydrocannabinol], for which the “effect on intraocular pressure” value in assay [1] is “reduces intraocular pressure”.
In assay [2], `O=C(c1ccc2ccccc2c1)c1cn(CCN2CCOCC2)c2ccccc12` [Example 1S] returned an IC50 of 50 nM.
